# Source: patent US8975370B2, “Inhibitor proteins of a protease and use thereof” (Universite de Lausanne, priority 2003, dated 2015)
# *1 amine or outer side, *2 acyl side, *3 side chain or, on linkers, in order; H or OH if unused. Where a SMILES comes first, the peptide text is derived from it. The star is where a group is joined. AMC = Cc1cc(=O)oc2cc(N*)ccc12; Suc = O=C(CCC(=O)[*:2])[*:1]; MeOSuc = COC(=O)CCC(=O)*
# Assays:
# [1] = target: T1, human neutrophil elastase (HNE) (Homo sapiens, UniProt P08246); test: Km of HNE for its fluorogenic substrate (used for ka correction, eq 2); type: biochemical; details: substrate MeOSuc-AAPV-AMC, kinetics in 50 mM Tris pH 7.5, 150 mM NaCl, 0.05% Triton X-100, 0.01% BSA, 25° C.
# T1 construct: substrate MeOSuc-AAPV-AMC
# T1 sequence (P08246 30-267): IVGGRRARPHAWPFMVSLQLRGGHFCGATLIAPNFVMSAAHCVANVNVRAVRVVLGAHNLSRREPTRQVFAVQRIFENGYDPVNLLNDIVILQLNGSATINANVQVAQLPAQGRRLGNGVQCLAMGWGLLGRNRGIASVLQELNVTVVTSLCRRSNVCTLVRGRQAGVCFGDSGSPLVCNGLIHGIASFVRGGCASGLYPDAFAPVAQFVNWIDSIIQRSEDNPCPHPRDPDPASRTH
# Description: (§1) hK2 and hK3 (PSA) were purified from human semen as previously described (Frenette G, Gervais Y, Tremblay R R, Dube J Y. 1998 “Contamination of purified prostate-specific antigen preparations by kallikrein hK2” J Urol 159, 1375-8), anti-hK2 and anti-PSA monoclonal antibodies were a gift from Professor R R Tremblay, Laval University, Canada. Human chymotrypsin (Chtr), urokinase plasminogen activator (uPA), human kallikrein hK1, human plasma kallikrein (PK), human neutrophil elastase (HNE) and commercial ACT (human plasma α1-antichymotrypsin) were purchased from Calbiochem. […]
# (§2) The association rate constants for interactions of hK2, chymotrypsin, PK and HNE with different rACTs were determined under pseudo-first order conditions using the progress curve method (Morrison J F, Walsh C T. 1988 “The behavior and significance of slow-binding enzyme inhibitors” Adv. Enzymol. Relat. Areas Mol. Biol 61, 201-301). […] Each reaction was made in reaction buffer (50 mM Tris pH 7.5, 150 mM NaCl, 0.05% Triton X-100, 0.01% BSA) at 25° C. for 45 min and the rate of product formation was measured using a FLx800 fluorescence 96-well microplate reader (Biotek, USA). […]
# (§3) For each inhibitor, a kobs was calculated, for four different concentrations of inhibitors, by non linear regression of the data using equation 1. […]
# [2] = test system: human chymotrypsin (Chtr); test: Km of chymotrypsin for its fluorogenic substrate (used for ka correction, eq 2); type: biochemical; details: substrate Suc-AAPF-AMC, kinetics in 50 mM Tris pH 7.5, 150 mM NaCl, 0.05% Triton X-100, 0.01% BSA, 25° C.
# Description: as §1, §2, §3
Km [1],Km [2],SMILES
130 µM,–,"COC(=O)CCC(=O)N[C@@H](C)C(=O)N[C@@H](C)C(=O)N1CCC[C@H]1C(=O)N[C@H](C(=O)Nc1ccc2c(C)cc(=O)oc2c1)C(C)C [MeOSuc-AAPV-AMC, MeOSuc-Ala-Ala-Pro-Val-AMC] (MeOSuc-AAPV-{AMC})"
–,145 µM,"Cc1cc(=O)oc2cc(NC(=O)[C@H](Cc3ccccc3)NC(=O)[C@@H]3CCCN3C(=O)[C@H](C)NC(=O)[C@H](C)NC(=O)CCC(=O)O)ccc12 [Suc-AAPF-AMC, Suc-Ala-Ala-Pro-Phe-AMC] (Suc-AAPF-{AMC})"
